In ChEMBL document CHEMBL5728563, “Aminopyrazine derivatives as PI3K-γ inhibitors” (2021):

Experiments:
[1] = target: Phosphatidylinositol 4,5-bisphosphate 3-kinase catalytic subunit gamma isoform (Homo sapiens, UniProt P48736); assay: (§1) PI3K-gamma Scintillation Proximity Assay: Materials: [γ-33P]ATP (10 mCi/mL) and Wheat Germ Agglutinin (WGA) YSi SPA Scintillation Beads was purchased from Perkin Elmer (Waltham, Mass.). Lipid kinase substrate, D-myo-Phosphatidylinositol 4,5-bisphosphate (PtdIns(4,5)P2)D (+)-sn-1,2-di-O-octanoylglyceryl, 3-O-phospho linked (PIP2), CAS 204858-53-7, was purchased from Echelon Biosciences (Salt Lake City, Utah). PI3Kγ (p110γ) Recombinant Human Protein was purchased from Life technology (Grand Island, N.Y.). ATP, MgCl2, DTT, EDTA, MOPS and CHAPS were purchased from Sigma Aldrich (St. Louis, Mo.).The kinase reaction was conducted in polystyrene 384-well Greiner Bio-one white plate from Thermo Fisher Scientific in a final volume of 25 μL. Inhibitors were first diluted serially in DMSO and added to the plate wells before the addition of other reaction components. The final concentration of DMSO in the assay was 2%. The PI3Kγ assay was carried out at room temperature in 20 mM MOPS, pH 6.7, 10 mM MgCl2, 5 mM DTT and CHAPS 0.03%. Reactions were initiated by the addition of ATP, the final reaction mixture consisted of 20 μM PIP2, 2 μM ATP, 0.5 μCi [γ-33P] ATP, 13 nM PI3Kγ. Reactions were incubated for 120 min and terminated by the addition of 40 μL SPA beads suspended in quench buffer: 163 mM potassium phosphate pH 7.8, 20% glycerol, 25 mM EDTA. The final concentration of SPA beads is 1.0 mg/mL. […]
[2] = target: T1, Phosphatidylinositol 4,5-bisphosphate 3-kinase catalytic subunit delta isoform (Homo sapiens, UniProt O00329); assay: as §1, with “PI3Kdelta” for “PI3K-gamma”, “PI3Kδ (p110δ/p85α)” for “PI3Kγ (p110γ)”, “Eurofins (St Charles, Mo.).” for “Life technology (Grand Island, N.Y.).”, “PI3Kδ” for “PI3Kγ”, “3.4” for “13”, “PI3Kδ.” for “PI3Kγ.”
T1 sequence (O00329 whole entry): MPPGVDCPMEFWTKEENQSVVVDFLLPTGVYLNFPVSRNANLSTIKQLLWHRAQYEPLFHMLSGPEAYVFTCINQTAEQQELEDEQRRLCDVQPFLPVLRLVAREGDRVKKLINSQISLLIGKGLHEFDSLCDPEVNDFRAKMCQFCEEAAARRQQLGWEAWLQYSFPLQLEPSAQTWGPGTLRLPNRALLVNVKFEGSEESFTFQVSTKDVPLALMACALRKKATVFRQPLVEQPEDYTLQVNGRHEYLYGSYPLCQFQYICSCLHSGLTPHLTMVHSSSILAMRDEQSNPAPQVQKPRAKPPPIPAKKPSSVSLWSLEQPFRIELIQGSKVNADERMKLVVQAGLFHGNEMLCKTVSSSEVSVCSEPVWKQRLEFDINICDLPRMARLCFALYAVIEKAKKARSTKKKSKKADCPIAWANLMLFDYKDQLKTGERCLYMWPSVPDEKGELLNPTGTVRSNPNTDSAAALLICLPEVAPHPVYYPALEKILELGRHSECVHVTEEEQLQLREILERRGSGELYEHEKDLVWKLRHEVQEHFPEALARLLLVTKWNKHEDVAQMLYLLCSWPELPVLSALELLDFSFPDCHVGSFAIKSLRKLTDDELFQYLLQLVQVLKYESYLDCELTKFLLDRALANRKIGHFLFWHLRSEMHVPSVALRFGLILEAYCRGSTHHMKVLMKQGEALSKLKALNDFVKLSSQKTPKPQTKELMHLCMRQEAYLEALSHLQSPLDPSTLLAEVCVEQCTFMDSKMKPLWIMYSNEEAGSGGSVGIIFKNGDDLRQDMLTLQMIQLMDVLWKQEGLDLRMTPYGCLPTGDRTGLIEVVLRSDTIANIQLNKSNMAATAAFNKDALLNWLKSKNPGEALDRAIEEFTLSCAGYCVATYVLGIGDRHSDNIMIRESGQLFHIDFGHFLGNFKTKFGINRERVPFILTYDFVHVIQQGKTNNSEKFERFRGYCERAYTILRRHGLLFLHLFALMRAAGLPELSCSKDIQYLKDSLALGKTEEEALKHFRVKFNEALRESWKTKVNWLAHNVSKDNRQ

Sequence of Phosphatidylinositol 4,5-bisphosphate 3-kinase catalytic subunit gamma isoform (P48736 whole entry, canonical isoform): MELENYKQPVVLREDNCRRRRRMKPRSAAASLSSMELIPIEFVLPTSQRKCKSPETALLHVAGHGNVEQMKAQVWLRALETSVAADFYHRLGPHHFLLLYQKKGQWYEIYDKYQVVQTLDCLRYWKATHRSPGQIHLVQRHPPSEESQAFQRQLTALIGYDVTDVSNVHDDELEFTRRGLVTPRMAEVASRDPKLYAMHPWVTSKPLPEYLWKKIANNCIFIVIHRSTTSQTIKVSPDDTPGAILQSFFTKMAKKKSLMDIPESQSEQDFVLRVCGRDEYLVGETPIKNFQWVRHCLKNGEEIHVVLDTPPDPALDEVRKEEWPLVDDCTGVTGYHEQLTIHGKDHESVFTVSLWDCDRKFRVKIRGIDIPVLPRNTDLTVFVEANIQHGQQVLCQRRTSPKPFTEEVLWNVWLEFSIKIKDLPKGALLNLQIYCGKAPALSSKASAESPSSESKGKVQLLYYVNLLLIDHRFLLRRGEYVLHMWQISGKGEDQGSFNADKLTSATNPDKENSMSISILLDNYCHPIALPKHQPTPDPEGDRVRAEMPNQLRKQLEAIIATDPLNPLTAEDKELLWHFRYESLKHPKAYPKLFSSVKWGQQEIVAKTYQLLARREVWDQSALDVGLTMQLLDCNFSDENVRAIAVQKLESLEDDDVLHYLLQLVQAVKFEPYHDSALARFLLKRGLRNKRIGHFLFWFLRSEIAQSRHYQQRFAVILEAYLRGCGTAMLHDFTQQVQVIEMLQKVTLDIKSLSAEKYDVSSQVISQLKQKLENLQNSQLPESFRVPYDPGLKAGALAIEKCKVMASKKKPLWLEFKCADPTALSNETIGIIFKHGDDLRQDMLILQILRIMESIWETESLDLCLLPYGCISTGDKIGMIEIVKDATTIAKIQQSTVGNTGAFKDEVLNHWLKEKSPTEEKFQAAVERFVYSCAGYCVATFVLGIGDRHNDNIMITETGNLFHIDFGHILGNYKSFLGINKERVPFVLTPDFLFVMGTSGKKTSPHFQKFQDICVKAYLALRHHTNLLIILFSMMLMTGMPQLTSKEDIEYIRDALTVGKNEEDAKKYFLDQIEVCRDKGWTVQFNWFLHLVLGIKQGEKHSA

IC50 [1]: < 100 nM
IC50 [2]: < 100 nM
SMILES: Cc1ncc(-c2nc(-c3cc(C(O)(C(N)=O)C(F)(F)F)ccc3C)cnc2N)s1 (configuration not stated)
